Results: patent US8163742B2, “Di-amino-substituted heterocyclic compounds and methods of use” (Amgen Inc., priority 2006, dated 2012)

Tested on: SCF-stimulated UT-7 cells
Test: SCF stimulated UT7 proliferation/survival assay
Type: cell-based
Settings: Homo sapiens, average value
Excerpt: SCF and GM-CSF Stimulated UT7 Proliferation/Survival Assay:
The purpose of this assay is to test the general anti-proliferative/cytotoxic effect of small molecule compounds on SCF or GM-CSF-stimulated UT-7 cells. Preventing SCF stimulated proliferation/survival is consistent with an on-mechanism effect whereas inhibition of GM-CSF driven proliferation/survival is indicative of off-target effects. UT-7 is a factor dependent human megakaryoblastic leukemia cell line that can be grown in either IL-3, GM-CSF, EPO or SCF (these cells have been confirmed to carry wild type c-kit receptor). Cells are maintained in growth media (IMDM, 10% HI-FBS, 1×PGS, 1 ng/mL GM-CSF). […] The amount of ATP is then measured as a surrogate marker for cell viability. This is accomplished by adding 50 μL of Perkin Elmer ATP 1 step reagent (as per instructed in the reagent manual, Cat. No. 6016739), incubating at RT for 15 min and reading the luminescence with a Perkin Elmer Topcount NXT™HTS (model c384) plate reader. The amount of SCF or GM-CSF stimulated viable cells in the presence of compound compared with in the presence of vehicle alone (HI control) is calculated using the formula: % control (POC)=(cpd−average LO)/(average HI−average LO)*100. […]

In the case of `FC(F)(F)c1cccc(Nc2noc3c(Nc4nccc(-c5cccnc5)n4)c(Cl)ccc23)c1` [Example 1, 6-chloro-N-7-(4-(pyridin-3-yl)pyrimidin-2-yl)-N3-(3-(trifluoromethyl)phenyl)benzo[d]isoxazole-3,7-diamine], the IC50 is reported as ~0.044 µM.
